Reference: BindingDB's records for PubMed 39140043 (Usona Institute)

Biological target: GTPase KRas (Homo sapiens, UniProt P01116)
Experiment: Inhibition of GDP bound KRAS G12V mutant (unknown origin)

Chain of GTPase KRas (P01116 whole entry G12V): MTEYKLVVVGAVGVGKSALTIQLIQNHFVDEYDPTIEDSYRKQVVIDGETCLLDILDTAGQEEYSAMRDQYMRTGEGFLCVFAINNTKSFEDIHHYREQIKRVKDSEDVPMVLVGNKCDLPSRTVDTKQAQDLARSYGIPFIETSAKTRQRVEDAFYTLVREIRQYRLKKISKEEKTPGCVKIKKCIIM

- IC50: 371 pM
Compound: C#Cc1c(F)ccc2cc(O)cc(-c3ncc4c(N(C)[C@H]5C[C@@H]5F)nc(OCC56CCCN5CC(=C)C6)nc4c3F)c12 (stereo partly specified)
